The source of these data is US20240400553A1, “AMINE BASED MATRIPTASE 2 INHIBITORS AND USES THEREOF” (Disc Medicine, Inc., priority 2023, published 2024).

A value given as a limit tells only on which side of the number the result lay.

The target of the first experiment is T1, Human Recombinant Matriptase 2 (Homo sapiens, UniProt Q8IU80).
T1 construct: made in house
T1 sequence (Q8IU80 1-811): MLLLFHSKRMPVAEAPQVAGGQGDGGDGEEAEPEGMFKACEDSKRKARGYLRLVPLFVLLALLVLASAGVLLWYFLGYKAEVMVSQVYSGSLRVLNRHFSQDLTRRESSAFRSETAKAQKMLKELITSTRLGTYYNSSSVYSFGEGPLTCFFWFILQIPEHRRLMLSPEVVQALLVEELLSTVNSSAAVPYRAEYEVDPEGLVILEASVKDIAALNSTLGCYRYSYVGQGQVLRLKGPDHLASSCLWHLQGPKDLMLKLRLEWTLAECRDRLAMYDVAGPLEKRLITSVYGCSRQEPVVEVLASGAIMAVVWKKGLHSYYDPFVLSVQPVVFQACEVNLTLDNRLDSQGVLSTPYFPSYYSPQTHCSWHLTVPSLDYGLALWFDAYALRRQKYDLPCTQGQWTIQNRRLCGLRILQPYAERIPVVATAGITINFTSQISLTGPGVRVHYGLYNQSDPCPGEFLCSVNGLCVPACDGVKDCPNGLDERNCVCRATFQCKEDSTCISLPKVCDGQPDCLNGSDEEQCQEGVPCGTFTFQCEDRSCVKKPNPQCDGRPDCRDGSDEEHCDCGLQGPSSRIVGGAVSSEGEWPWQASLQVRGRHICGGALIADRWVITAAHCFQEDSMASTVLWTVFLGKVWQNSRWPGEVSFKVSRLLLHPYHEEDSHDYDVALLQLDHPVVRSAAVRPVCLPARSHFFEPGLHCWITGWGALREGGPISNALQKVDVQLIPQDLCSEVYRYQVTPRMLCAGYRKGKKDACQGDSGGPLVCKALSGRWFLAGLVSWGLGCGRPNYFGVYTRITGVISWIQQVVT
Kind of experiment: Matriptase 2 inhibition, fluorescence based assay (Method I). It is filed as biochemical. The conditions noted are these: Table A; Ki of Matriptase-2; read-out: Mat-2 Ki. The method, boiled down: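 In-house recombinant enzyme (3.5 nM), preincubated 30 min with compound, then Boc-Gln-Ala-Arg-AMC substrate (62 μM) in 50 mM Tris pH 7.5, 150 mM NaCl, 0.01% gelatin, 1% DMSO, 25 °C. Fluorescence (Ex 360/Em 480 nm) read 60 min after substrate; IC50 from variable-slope sigmoidal fit of % inhibition.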
Usually Ki stands for a dissociation constant, usually derived from enzyme kinetics or from competition with a known ligand. `CC(C)(C)n1nccc1COC(=O)c1cc2ccc(CN)nc2n1Cc1cc(NS(=O)(=O)Cc2ccccc2)cc2ccccc12` [Compound 110]: the inhibition constant (Ki) lay within 100 to 500 nM.

In the case of `CN(CCOC(=O)c1cc2ccc(CN)nc2n1Cc1cc(NS(=O)(=O)Cc2ccccc2)cc2ccccc12)c1ccccc1` [Compound 126, 2-[methyl(phenyl)-amino]ethyl 6-(amino-methyl)-1-{[3-(phenyl-methanesulfonamido)-naphthalen-1-yl]methyl}-1H-pyrrolo[2,3-b]pyr-idine-2-carboxylate], the Ki fell in the range of 500 to 3000 nM. Still for that read-out and setting: under `NCc1ccc2cc(C(=O)OCC34CC(F)(C3)C4)n(Cc3cc(NS(=O)(=O)Cc4ccccc4)cc4ccccc34)c2n1` [Compound 117, {3-fluorobicyclo[1.1.1]-pentan-1-yl}methyl 6-(aminomethyl)-1-{[3-(phenylmethanesulfon-amido)naphthalen-1-yl]-methyl}-1H-pyrrolo[2,3-b]pyridine-2-carboxylate] stands 500 to 3000 nM. Still for that read-out and setting: under `CN1CCC(CCOC(=O)c2cc3ccc(CN)nc3n2Cc2cc(NS(=O)(=O)Cc3cccs3)cc3ccccc23)CC1` [Compound 150, 2-(1-methylpiperidin-4-yl)ethyl 6-(aminometh-yl)-1-({3-[(thiophen-2-yl)methanesulfonamido]-naphthalen-1-yl}methyl)-1H-pyrrolo[2,3-b]pyr-idine-2-carboxylate] stands at most 100 nM; under `CC(C)n1cncc1COC(=O)c1cc2ccc(CN)nc2n1Cc1cc(NS(=O)(=O)Cc2ccccc2)cc2ccccc12` [Compound 70, [1-(propan-2-yl)-1H-imidazol-5-yl]methyl 6-(aminomethyl)-1-{[3-(phenylmethanesulfon-amido)naphthalen-1-yl]-methyl}-1H-pyrrolo[2,3-b]pyridine-2-carboxylate], at most 100 nM.

Still in this experiment, the particulars now being: Table A; Ki of Matriptase-2 given as class symbols; read-out: Mat-2 Ki.
For the compound `NCc1ccc2cc(C(=O)O)n(Cc3cc(NS(=O)(=O)C[C@H]4CCCO4)cc4ccccc34)c2n1` (racemic) [Compound 257, rac-6-(aminomethyl)-1-[(3-{[(2R)-oxolan-2-yl]methanesulfonamido}-naphthalen-1-yl)methyl]-1H-pyrrolo[2,3-b]pyr-idine-2-carboxylic acid], the inhibitory constant (Ki) lay within 100 to 500 nM. Consider `CN1CCC(COC(=O)c2cc3ccc(CN)nc3n2Cc2cc(NS(=O)(=O)Cc3cccc(C#N)c3)cc3ccccc23)CC1` [Compound 221, (1-methylpiperidin-4-yl)methyl 6-(aminometh-yl)-1-({3-[(3-cyanophen-yl)methanesulfonamido]-naphthalen-1-yl}methyl)-1H-pyrrolo[2,3-b]pyr-idine-2-carboxylate], for which the Ki is 100 to 500 nM.

For `CC1(C)CCN(C(=O)Nc2cc(Cn3c(C(=O)O)cc4ccc(CN)nc43)c3ccccc3c2)CC1` [Compound 296, 6-(aminomethyl)-1-({3-[(4,4-dimethylpiperidine-1-carbonyl)amino]naph-thalen-1-yl}methyl)-1H-pyrrolo[2,3-b]pyridine-2-carboxylic acid], the inhibitory constant (Ki) lay in the range of 500 to 3000 nM. Same read-out and setting: then `NCc1ccc2cc(-c3cnn[nH]3)n(Cc3cc(NS(=O)(=O)Cc4ccccc4)cc4ccccc34)c2n1` [Compound 350, N-(4-((6-(aminomethyl)-2-(1H-1,2,3-triazol-5-yl)-1H-pyrrolo[2,3-b]pyridin-1-yl)methyl)naphthalen-2-yl)-1-phenylmethanesulfonamide], with 100 to 500 nM; and `NCc1ccc2cc(C(=O)O)n(Cc3cc(NC(=O)N4CC5CC(C5)C4)cc4ccccc34)c2n1` [Compound 308, 6-(aminomethyl)-1-{[3-({3-azabicyclo[3.1.1]-heptane-3-carbonyl}-amino)naphthalen-1-yl]-methyl}-1H-pyrrolo[2,3-b]pyridine-2-carboxylic acid], with 500 to 3000 nM.

Still in this experiment, the particulars now being: Table B; Human Recombinant Matriptase 2, 3.5 nM enzyme, 62 μM substrate, 30 mins preincubation; read-out: Mean Ki.
With `CN1CCC(COC(=O)c2cc3ccc(CN)nc3n2Cc2cc(NS(=O)(=O)Cc3ccccc3)c3ccccc3c2)CC1` [Compound 2.16], the inhibitory constant (Ki) is 100 to 500 nM.
